From patent US5965407A, “Anthracycline compound 0624” (Higeta Shoyu Co. Ltd., priority 1997, dated 1999) come the findings set out here.

In brackets after ≈: the same amount, converted by molar mass.

For series [1], the system named is Adriamycin resistant P388 cell line. In words: Growth inhibition of adriamycin resistant P388 cells (MTT assay). The series is classed as cell-based. The conditions noted are these: Mus musculus, Adriamycin resistant P388, 72 hours, 37° C. The protocol: (§1) Cell suspensions were prepared (at 5.6×10^6 cells/ml) by using RPMI 1640 medium for L1210 cell line, RPMI 1640 medium containing 20 μM 2-mercaptoethanol (all the media containing 10% bovine serum) for P388 cell line and an adriamycin resistant P388 cell line, Eagle's MEM medium for KB cell line, and α-MEM medium for CHO cell line.
(§2) Test samples (0624-A and 0624-B) were individually dissolved in methanol and serially diluted with the individual media in a series of 2-fold dilution starting from a concentration of 0.1 mg/ml. The cell suspensions (each of 180 μl) and each test sample (20 μl) were divided in a 96-well microtiter plate, and subjected to culturing in wet atmosphere of 5% CO2 -95% air at 37° C. 72 hours after, cell growth was determined by the calorimetric assay using 3-(4, 5-dimethyl-z-thiazolyl)-2,5-diphenyl-2H-tetrazolium bromide (MTT). More specifically, 20 μl each of 2 mg/ml MTT solution was added into each well, followed by culturing at 37° C. for 4 hours. Then, 50 μl of 50 % dimethylformamide solution containing 20% sodium dodecyl sulfate was added to each well, which was left to stand. The resulting formed violet formazan crystal was solubilized and subjected to determination of absorbance at 570 nm, by using a microplate reader (Immunoreader), which was used as the indicator of growth. […]

In series [2] the test system is N. otitidiscaviarum IFM0239. In words: Antimicrobial activity (MIC), N. otitidiscaviarum. The settings on record: N. otitidiscaviarum IFM0239, Muller-Hinton broth, 24 hours, 37° C. Type of series: cell-based. The protocol:
(§3) The antimicrobial activity of compound 0624 was confirmed through the assaying of the minimum growth inhibitory concentration (MIC).
(§4) The MICs of compound 0624 against various bacteria were determined in a Muller-Hinton broth (BBL) containing 0.2% glucose, according to the standard defined by the Japan Chemotherapy Association (The Essentials of Antibiotics, the 4-th edition, Tokyo University Press, 1992).
(§5) The test bacteria were adjusted to 1×10^8 cfu/ml in the broth, and then used as test bacteria solutions.
(§6) The test samples (compounds 0624-A and 0624-B) were, separately, dissolved in methanol and were then serially diluted with the broth in a series of 2-fold dilution, starting from a concentration of 0.1 mg/ml. Each test bacteria solution (180 μl) and each test sample (20 μl) were divided in a 96-well microtiter plate, and cultured at 37° C. After 24 hours, the MIC was observed and calculated by the eye, and the resulting MIC was defined as MIC value.

Series [3] relates to cell lines L1210, P388, adriamycin resistant P388, KB and CHO. In words: Growth inhibition of the tumor cell line panel (MTT assay), summary in words. The series is classed as cell-based. The protocol:
as §1, §2

The next series relates to Bacillus subtilis PC1189. Put plainly: Antimicrobial activity (MIC), Bacillus subtilis. Type of series: cell-based. The settings on record: Bacillus subtilis PC1189, Muller-Hinton broth, 24 hours, 37° C. How it is done:
as §3, §4, §5, §6

In the next series the test system is M. flavescens ATCC14474. Put plainly: Antimicrobial activity (MIC), M. flavescens. The series is classed as cell-based. The conditions noted are these: Mycolicibacterium flavescens; M. flavescens ATCC14474, Muller-Hinton broth, 24 hours, 37° C. The protocol:
as §3, §4, §5, §6

The subject of series [4] is Micrococcus luteus IFM2066. Put plainly: Antimicrobial activity (MIC), Micrococcus luteus. The settings on record: Micrococcus luteus IFM2066, Muller-Hinton broth, 24 hours, 37° C. Type of series: cell-based. How it is done: as §3, §4, §5, §6
The test system of the next series is P388 cell line. In words: Growth inhibition of P388 cells (MTT assay). Type of series: cell-based. The settings on record: Mus musculus, P388, 72 hours, 37° C. How it is done:
as §1, §2

Series [5] relates to Nocardia transvalensis IFM0333. In words: Antimicrobial activity (MIC), Nocardia transvalensis. Type of series: cell-based. The settings on record: Nocardia transvalensis IFM0333, Muller-Hinton broth, 24 hours, 37° C. The protocol:
as §3, §4, §5, §6

The test system of another series is gram-positive bacteria. In words: Antimicrobial activity, summary in words. Type of series: cell-based. The settings on record: gram-positive bacteria of Table 6. How it is done: as §3, §4, §5, §6
Another series has as its system KB cell line. In words: Growth inhibition of KB cells (MTT assay). The series is classed as cell-based. The conditions noted are these: Homo sapiens, 72 hours, 37° C. How it is done:
as §1, §2

For a further series, the system named is N. nova IFM0290. Put plainly: Antimicrobial activity (MIC), N. nova. Type of series: cell-based. The settings on record: N. nova IFM0290, Muller-Hinton broth, 24 hours, 37° C. How it is done: as §3, §4, §5, §6
In series [6] the test system is Staphylococcus aureus 209P. In words: Antimicrobial activity (MIC), Staphylococcus aureus. Type of series: cell-based. The conditions noted are these: Muller-Hinton broth, 24 hours, 37° C. How it is done:
as §3, §4, §5, §6

For another series, the system named is CHO cell line. In words: Growth inhibition of CHO cells (MTT assay). Type of series: cell-based. The settings on record: Cricetulus griseus, 72 hours, 37° C. The protocol:
as §1, §2

A further series deals with M. phlei ATCC11758. Put plainly: Antimicrobial activity (MIC), M. phlei. Type of series: cell-based. The settings on record: Mycolicibacterium phlei; M. phlei ATCC11758, Muller-Hinton broth, 24 hours, 37° C. How it is done: as §3, §4, §5, §6
For the next series, the system named is N. asteroides IFM0319. Put plainly: Antimicrobial activity (MIC), N. asteroides. Type of series: cell-based. The settings on record: Nocardia asteroides; N. asteroides IFM0319, Muller-Hinton broth, 24 hours, 37° C. How it is done: as §3, §4, §5, §6
For the next series, the system named is N. farcinica IFM0284. Put plainly: Antimicrobial activity (MIC), N. farcinica. The series is classed as cell-based. The conditions noted are these: Nocardia farcinica; N. farcinica IFM0284, Muller-Hinton broth, 24 hours, 37° C. The protocol:
as §3, §4, §5, §6

The test system of a further series is L1210 cell line. Put plainly: Growth inhibition of L1210 cells (MTT assay). Type of series: cell-based. The settings on record: Mus musculus, L1210, 72 hours, 37° C. How it is done: as §1, §2
Another series in a line: Solubility. Type of series: physicochemical.
In the next series the test system is N. brasiliensis IFM0236. In words: Antimicrobial activity (MIC), N. brasiliensis. Type of series: cell-based. The conditions noted are these: N. brasiliensis IFM0236, Muller-Hinton broth, 24 hours, 37° C. How it is done: as §3, §4, §5, §6
For series [7], the system named is Mycobacterium smegmatis ATCC607. In words: Antimicrobial activity (MIC), Mycobacterium smegmatis. The series is classed as cell-based. The settings on record: Mycolicibacterium smegmatis; Mycobacterium smegmatis ATCC607, Muller-Hinton broth, 24 hours, 37° C. The protocol:
as §3, §4, §5, §6

The mark [8] stands for this setting: in chloroform, ether and hexane.
Setting [9] is: in water, methanol, ethanol, DMSO and ethyl acetate.

For `COc1ccc(O)c2c1C(=O)c1cc3c(c(O)c1C2=O)C(OC1CC(C)(N(C)C)C(O)C(C)O1)C(OC)C(C)(O)C3=O` (stereo not drawn) [Compound 0624-A], the IC50 was determined as 0.97 µg/mL (≈ 1.66 µM) in [1]; 0.47 µg/mL (≈ 0.803 µM) in the series on P388 cell line; 1.06 µg/mL (≈ 1.81 µM) in the series on KB cell line; 12.3 µg/mL (≈ 21 µM) in the series on CHO cell line; 0.15 µg/mL (≈ 0.256 µM) in the series on L1210 cell line. For the same molecule, the MIC in series [2] was found to be 1.56 µg/mL (≈ 2.66 µM); against Bacillus subtilis PC1189 it was 6.25 µg/mL (≈ 10.7 µM); in the series on M. flavescens ATCC14474, 3.13 µg/mL (≈ 5.34 µM); in series [4] it was 1.56 µg/mL (≈ 2.66 µM); in series [5] it was 3.13 µg/mL (≈ 5.34 µM); in the series with N. nova IFM0290, 0.78 µg/mL (≈ 1.33 µM). For the same molecule, the MIC in series [6] came to 3.13 µg/mL (≈ 5.34 µM); in the series on M. phlei ATCC11758 it was 0.78 µg/mL (≈ 1.33 µM); in the series with N. asteroides IFM0319 it was 1.56 µg/mL (≈ 2.66 µM); in the series on N. farcinica IFM0284, 3.13 µg/mL (≈ 5.34 µM); with N. brasiliensis IFM0236, 6.25 µg/mL (≈ 10.7 µM); in series [7] it was 1.56 µg/mL (≈ 2.66 µM). Besides, in [3], the “growth inhibitory activities against the cell lines” value is reported as “have the growth inhibitory activities”. Moreover, the “antimicrobial activity against gram-positive bacteria” value with gram-positive bacteria is given as “wide spectrum of antimicrobial activity”. Besides, the Solubility result in the series “Solubility” (setting [8]) was “Insoluble”; in the series “Solubility” (setting [9]), “Soluble”.

As for `COc1ccc(O)c2c1C(=O)c1cc3c(c(O)c1C2=O)C(OC1CC(C)(N(C)C)C(OC(C)=O)C(C)O1)C(OC)C(C)(O)C3=O` (stereo not drawn) [Compound 0624-B], the IC50 in [1] amounted to 1.05 µg/mL (≈ 1.67 µM); in the series with P388 cell line it was 0.59 µg/mL (≈ 0.94 µM); in the series with KB cell line, 1.32 µg/mL (≈ 2.1 µM); in the series on CHO cell line, 18.6 µg/mL (≈ 29.6 µM); in the series on L1210 cell line it was 0.18 µg/mL (≈ 0.287 µM). The MIC in [2] was > 100 µg/mL; in the series with Bacillus subtilis PC1189, 3.13 µg/mL (≈ 4.99 µM); against M. flavescens ATCC14474, 12.5 µg/mL (≈ 19.9 µM); in series [4], 12.5 µg/mL (≈ 19.9 µM); in [5], 6.25 µg/mL (≈ 9.96 µM); with N. nova IFM0290, 1.56 µg/mL (≈ 2.49 µM). The minimum inhibitory concentration (MIC) in series [6] was 100 µg/mL (≈ 159 µM); against M. phlei ATCC11758, 3.13 µg/mL (≈ 4.99 µM); in the series with N. asteroides IFM0319, 3.13 µg/mL (≈ 4.99 µM); in the series on N. farcinica IFM0284, 12.5 µg/mL (≈ 19.9 µM); in the series on N. brasiliensis IFM0236 it was > 100 µg/mL; in [7], 3.13 µg/mL (≈ 4.99 µM). The “growth inhibitory activities against the cell lines” value in series [3] is recorded as “have the growth inhibitory activities”. In the series on gram-positive bacteria, the “antimicrobial activity against gram-positive bacteria” value is on record as “wide spectrum of antimicrobial activity”. For the same molecule, the figures for the Solubility result in the series “Solubility” (setting [8]) and in the series “Solubility” (setting [9]) were “Insoluble” and “Soluble”, respectively.
